The text below walks through data of patent publication US20230331737A1, “MTORC1 MODULATORS AND USES THEREOF” (Aeovian Pharmaceuticals, Inc., priority 2020, published 2023).

In assay [1] the target is FKBP12 ternary complex with FRB (Homo sapiens, UniProt P42345+P62942). The experiment in a line: SPR assay to characterize ternary complex formation with FKBP12 (FRB injected over compound-saturated FKBP12). The format is binding. The conditions noted are these: FRB dilutions with 100 nM test compound over immobilized FKBP12. The protocol:
Biotinylated avi-FKBP12 was immobilized on a streptavidin chip (Cytiva Series S SA) using a Biacore 8K or 8k+ (Cytiva). To achieve an immobilization level of 100 RU, 0.3 μg/ml biotinylated avi-FKBP12 were injected for 80 sec at a flow rate of 10 μl/min. Serial dilution of FRB was prepared (12 concentrations, 3-fold dilutions, 0.00011-20 μM) and supplemented with 100 nM of a test compound. A-B-A injection mode was used to ensure saturation immobilized FKBP12 with respective test compound. 100 nM solution of the respective test compound was injected before FRB injection for 120 sec and during dissociation for 420 sec. The FRB dilutions were then injected 120 seconds contact time with increasing concentrations. Rapamycin was used as reference sample. 50 mM HEPES pH 7.5, 150 mM NaCl, 2 mM MgCl2, 1 mM DTT, 0.05% Tween-20, 1% DMSO was used as running buffer at a flow rate of 30 μl/min. The multi-cycle kinetics data were fit to a 1:1 binding model to measure the association rate ka (1/Ms), the dissociation rate kd (1/s) and the affinity Kd (M). In case of fast association and dissociation, steady state affinity analysis following the law of mass action was used to determine the affinity Kd (M).
On the technique in general: SPR reads the build-up and loss of mass on a sensor chip optically.

The target of another assay is FKBP12 (Homo sapiens, UniProt P62942). Briefly: SPR assay to determine binding affinity to FKBP12 (direct binding). As to conditions: immobilized biotinylated avi-FKBP12, single-cycle kinetics. As to the method:
SPR Assay to Determine Binding Affinity to FKBP12.
Biotinylated avi-FKBP12 was immobilized on a streptavidin chip (Cytiva Series S SA) using a Biacore 8K or 8k+ (Cytiva). […] Test compounds described in Table 11 were diluted in DMSO to 100× working concentration. Each test compound was 100-fold diluted in 50 mM HEPES pH 7.5, 150 mM NaCl, 2 mM MgCl2, 1 mM DTT, 0.05% Tween-20 and a serial dilution prepared (9 concentrations, 3-fold dilutions, 0.08-500 nM). […] The compound dilutions were then injected at 100 uL/min for 120 seconds contact time in sequence with increasing concentrations. Dissociation was monitored for 3600 seconds. 50 mM HEPES pH 7.5, 150 mM NaCl, 2 mM MgCl2, 1 mM DTT, 0.05% Tween-20, 1% DMSO was used as running buffer. The single-cycle kinetics data were fit to a 1:1 binding model to measure the association rate ka (1/Ms), the dissociation rate kd (1/s) and the affinity Kd (M).

A further assay addresses T1, mTORC1 (Homo sapiens, UniProt P42345+P62942).
T1 construct: endogenous in cells; host or cells: PC-3 cells
Briefly: mTORC1 inhibition in PC-3 cells, AlphaLISA of p70S6K pT389 levels. Format: cell-based. As to conditions: mTORC1 as measured by inhibition of p70S6K pT389 levels, read-out: mTROC1 IC50. The protocol: mTORC1 inhibition was determined via analysis of phosphorylation levels of Phospho-p70 S6 kinase (p70S6K pT389) and Phospho-S6 Ribosomal Protein (pRPS6 pS240/pS244) with the corresponding AlphaLISA kits (PerkinElmer Alpha SF Ultra™ Multiplex phospho (Thr389)/total p70 S6K Assay Kit (Eu/Tb) and AlphaLISA SF Ultra™ p-Ribosomal Protein S6 (Ser240/244) Assay Kit).
%−activity=100*((Sample−Low control)/(High control−Low control))
Background: Alpha assays give light when donor and acceptor beads are brought close together.

Where only a bound is given, the exact number is not on record here.

FKBP12, sequence (P62942 whole entry, species assumed): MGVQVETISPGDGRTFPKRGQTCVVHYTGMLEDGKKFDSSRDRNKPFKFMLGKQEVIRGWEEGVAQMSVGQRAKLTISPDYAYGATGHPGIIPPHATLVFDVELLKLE

As for `COCCO[C@H]1C[C@@H]2CC[C@@H](C)[C@@](O)(O2)C(=O)C(=O)N2CCCC[C@H]2C(=O)O[C@H]([C@H](C)C[C@@H]2CC[C@@H](OCCO)[C@H](OC)C2)CC(=O)[C@H](C)/C=C(\C)[C@@H](O)[C@@H](OC)C(=O)[C@H](C)C[C@H](C)/C=C/C=C/C=C/1C` [Compound 439, (1R,9S,12S,15R,16E,18R,19R,21R,23S,24E,26E,28E,30S,32S,35R)-1,18-dihydroxy-12-[(1R)-2-[(1S,3R,4R)-4-(2-hydroxyethoxy)-3-methoxy-cyclohexyl]-1-methyl-ethyl]-19-methoxy-30-(2-methoxyethoxy)-15,17,21,23,29,35-hexamethyl-11,36-dioxa-4-azatricyclo[30.3.1.0^4,9]hexatriaconta-16,24,26,28-tetraene-2,3,10,14,20-pentone], the equilibrium dissociation constant (Kd) (in general, the constant that tells how readily two partners part at equilibrium) in assay [1] is below 500 nM; at FKBP12, 0.3 to 1 nM. For the same molecule, the IC50 (as a rule, the concentration at which inhibition is half-maximal) at mTORC1 is below 0.8 nM.
On to `CO[C@@H]1C[C@H](C[C@@H](C)[C@@H]2CC(=O)[C@H](C)/C=C(\C)[C@@H](O)[C@@H](OC)C(=O)[C@H](C)C[C@H](C)/C=C/C=C/C=C(\C)[C@H](OCCCCO)C[C@@H]3CC[C@@H](C)[C@@](O)(O3)C(=O)C(=O)N3CCCC[C@H]3C(=O)O2)CC[C@H]1OCCCN1CCOCC1` [Compound 27, (1R,9S,12S,15R,16E,18R,19R,21R,23S,24E,26E,28E,30R,32S,35R)-1,18-dihydroxy-30-(4-hydroxybutoxy)-19-methoxy-12-[(1R)-2-[(1S,3R,4R)-3-methoxy-4-(3-morpholinopropoxy)cyclohexyl]-1-methyl-ethyl]-15,17,21,23,29,35-hexamethyl-11,36-dioxa-4-azatricyclo[30.3.1.04,9]hexatriaconta-16,24,26,28-tetraene-2,3,10,14,20-pentone], for which the values for the Kd (in assay [1]; on FKBP12) were 500 to 1100 nM and below 0.3 nM, respectively. For the same molecule, at mTORC1, the IC50 lay in the range of 0.8 to 1.5 nM.
For `CO[C@@H]1C[C@H](C[C@@H](C)[C@@H]2CC(=O)[C@H](C)/C=C(\C)[C@@H](O)[C@@H](OC)C(=O)[C@H](C)C[C@H](C)/C=C/C=C/C=C(\C)[C@@H](OCCOCCO)C[C@@H]3CC[C@@H](C)[C@@](O)(O3)C(=O)C(=O)N3CCCC[C@H]3C(=O)O2)CC[C@H]1O` [Compound 524, (1R,9S,12S,15R,16E,18R,19R,21R,23S,24E,26E,28E,30S,32S,35R)-1,18-dihydroxy-30-[2-(2-hydroxyethoxy)ethoxy]-12-[(1R)-2-[(1S,3R,4R)-4-hydroxy-3-methoxy-cyclohexyl]-1-methyl-ethyl]-19-methoxy-15,17,21,23,29,35-hexamethyl-11,36-dioxa-4-azatricyclo[30.3.1.04,9]hexatriaconta-16,24,26,28-tetraene-2,3,10,14,20-pentone], the Kd in assay [1] was 500 to 1100 nM; at FKBP12, below 0.3 nM. The IC50 at mTORC1 is below 0.8 nM.
On to `COCCO[C@@H]1C[C@@H]2CC[C@@H](C)[C@@](O)(O2)C(=O)C(=O)N2CCCC[C@H]2C(=O)O[C@H]([C@H](C)C[C@@H]2CC[C@@H](OCCO)[C@H](OC)C2)CC(=O)[C@H](C)/C=C(\C)[C@@H](O)[C@@H](OC)C(=O)[C@H](C)C[C@H](C)/C=C/C=C/C=C/1C` [Compound 40, (1R,9S,12S,15R,16E,18R,19R,21R,23S,24E,26E,28E,30R,32S,35R)-1,18-dihydroxy-12-[(1R)-2-[(1S,3R,4R)-4-(2-hydroxyethoxy)-3-methoxy-cyclohexyl]-1-methyl-ethyl]-19-methoxy-30-(2-methoxyethoxy)-15,17,21,23,29,35-hexamethyl-11,36-dioxa-4-azatricyclo[30.3.1.0^4,9]hexatriaconta-16,24,26,28-tetraene-2,3,10,14,20-pentone], for which the dissociation constant Kd in assay [1] was 500 to 1100 nM; on FKBP12, above 1 nM. The IC50 on mTORC1 was above 1.5 nM.
For `COCCO[C@@H]1C[C@@H]2CC[C@@H](C)[C@@](O)(O2)C(=O)C(=O)N2CCCC[C@H]2C(=O)O[C@H]([C@H](C)C[C@@H]2CC[C@@H](O)[C@H](OC)C2)CC(=O)[C@H](C)/C=C(\C)[C@@H](O)[C@@H](OC)C(=O)[C@H](C)C[C@H](C)/C=C/C=C/C=C/1C` [Compound 130, (1R,9S,12S,15R,16E,18R,19R,21R,23S,24E,26E,28E,30R,32S,35R)-1,18-dihydroxy-12-[(1R)-2-[(1S,3R,4R)-4-hydroxy-3-methoxy-cyclohexyl]-1-methyl-ethyl]-19-methoxy-30-(2-methoxyethoxy)-15,17,21,23,29,35-hexamethyl-11,36-dioxa-4-azatricyclo[30.3.1.04,9]hexatriaconta-16,24,26,28-tetraene-2,3,10,14,20-pentone] the same measures were 500 to 1100 nM, 0.3 to 1 nM and 0.8 to 1.5 nM.
In the case of `COCCO[C@H]1C[C@@H]2CC[C@@H](C)[C@@](O)(O2)C(=O)C(=O)N2CCCC[C@H]2C(=O)O[C@H]([C@H](C)C[C@@H]2CC[C@@H](O)[C@H](OC)C2)CC(=O)[C@H](C)/C=C(\C)[C@@H](O)[C@@H](OC)C(=O)[C@H](C)C[C@H](C)/C=C/C=C/C=C/1C` [Compound 529, (1R,9S,12S,15R,16E,18R,19R,21R,23S,24E,26E,28E,30S,32S,35R)-1,18-dihydroxy-12-[(1R)-2-[(1S,3R,4R)-4-hydroxy-3-methoxy-cyclohexyl]-1-methyl-ethyl]-19-methoxy-30-(2-methoxyethoxy)-15,17,21,23,29,35-hexamethyl-11,36-dioxa-4-azatricyclo[30.3.1.04,9]hexatriaconta-16,24,26,28-tetraene-2,3,10,14,20-pentone], the results for the Kd (in assay [1]; on FKBP12) were below 500 nM and below 0.3 nM, respectively. Also, the IC50 at mTORC1 was below 0.8 nM.
As to `CO[C@@H]1C[C@H](C[C@@H](C)[C@@H]2CC(=O)[C@H](C)/C=C(\C)[C@@H](O)[C@@H](OC)C(=O)[C@H](C)C[C@H](C)/C=C/C=C/C=C(\C)[C@@H](OCCCCO)C[C@@H]3CC[C@@H](C)[C@@](O)(O3)C(=O)C(=O)N3CCCC[C@H]3C(=O)O2)CC[C@H]1OCCCN1CCOCC1` [Compound 426, (1R,9S,12S,15R,16E,18R,19R,21R,23S,24E,26E,28E,30S,32S,35R)-1,18-dihydroxy-30-(4-hydroxybutoxy)-19-methoxy-12-[(1R)-2-[(1S,3R,4R)-3-methoxy-4-(3-morpholinopropoxy)cyclohexyl]-1-methyl-ethyl]-15,17,21,23,29,35-hexamethyl-11,36-dioxa-4-azatricyclo[30.3.1.0^4,9]hexatriaconta-16,24,26,28-tetraene-2,3,10,14,20-pentone], the Kd in assay [1] is 500 to 1100 nM; at FKBP12 it was below 0.3 nM. The 50% inhibitory concentration (IC50) on mTORC1 is 0.8 to 1.5 nM.
For the molecule `CO[C@@H]1C[C@H](C[C@@H](C)[C@@H]2CC(=O)[C@H](C)/C=C(\C)[C@@H](O)[C@@H](OC)C(=O)[C@H](C)C[C@H](C)/C=C/C=C/C=C(\C)[C@@H](OCCc3ccccc3)C[C@@H]3CC[C@@H](C)[C@@](O)(O3)C(=O)C(=O)N3CCCC[C@H]3C(=O)O2)CC[C@H]1O` [Compound 520, (1R,9S,12S,15R,16E,18R,19R,21R,23S,24E,26E,28E,30S,32S,35R)-1,18-dihydroxy-12-[(1R)-2-[(1S,3R,4R)-4-hydroxy-3-methoxy-cyclohexyl]-1-methyl-ethyl]-19-methoxy-15,17,21,23,29,35-hexamethyl-30-(2-phenylethoxy)-11,36-dioxa-4-azatricyclo[30.3.1.04,9]hexatriaconta-16,24,26,28-tetraene-2,3,10,14,20-pentone], the Kd is below 500 nM in assay [1] and above 1 nM on FKBP12. Also, the IC50 at mTORC1 was below 0.8 nM.
